Key:
Assay in all cases: Test B pre-/postemergence plant response
Format in all cases: in vivo
[1] = tested on: corn (Zea mays)
In short: (§1)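 Visual scoring from 0 (no effect) to 100 (complete control) against untreated controls was done 13 to 15 days after greenhouse treatment. Chemicals were formulated in a surfactant-containing non-phytotoxic solvent and applied to soil preemergence or to 1- to 4-leaf (2-18 cm) plants postemergence.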

[2] = tested on: green foxtail (Setaria viridis)
In short: as §1

[3] = tested on: giant foxtail (Setaria faberii)
In short: as §1

[4] = tested on: surinam grass (Brachiaria decumbens)
In short: as §1

[5] = tested on: wild oat (Avena fatua)
In short: as §1

[6] = tested on: woolly cupgrass (Eriochloa villosa)
In short: as §1

[7] = tested on: catchweed bedstraw (Galium aparine); details: Preemergence
In short: as §1

[8] = tested on: lambsquarters (Chenopodium album)
In short: as §1

[9] = tested on: downy bromegrass (Bromus tectorum)
In short: as §1

[10] = tested on: blackgrass (Alopecurus myosuroides)
In short: as §1

[11] = tested on: goosegrass (Eleusine indica)
In short: as §1

[12] = tested on: pigweed (Amaranthus retroflexus)
In short: as §1

[13] = tested on: morningglory (Ipomoea coccinea)
In short: as §1

[14] = tested on: common ragweed (Ambrosia elation)
In short: as §1

[15] = 8 g ai/ha, postemergence, 0-100 scale
[16] = 16 g ai/ha, postemergence, 0-100 scale
[17] = Postemergence, 31 g ai/ha, scale 0 to 100
[18] = Postemergence, 62 g ai/ha, scale 0 to 100, 0 no effect, 100 complete control
[19] = Preemergence, 8 g ai/ha, scale 0 to 100 (0 no effect, 100 complete control)
[20] = Preemergence, 31 g ai/ha, scale 0 to 100 (0 no effect, 100 complete control)
[21] = Preemergence, 62 g ai/ha, 0 to 100 scale, 0 no effect, 100 complete control
[22] = Preemergence, 16 g ai/ha, scale 0 to 100

## COc1nn(C)c(=O)c(-n2nc(-c3ccc(Br)cc3)cc2C)c1O [Compound 82]
[1]; [15]
  Corn plant response rating: 40
[1]; [16]
  Corn plant response rating: 100
[1]; [17]
  Plant response rating, Corn: 100
[1]; [18]
  Plant response rating, Corn: 100
[1]; [19]
  Corn plant response rating: 95
[1]; [20]
  Plant response rating, Corn: 98
[1]; [21]
  Plant response rating, Corn: 98
[1]; [22]
  Corn plant response rating: 95
[2]; [15]
  Foxtail, Green plant response rating: 85
[2]; [16]
  Foxtail, Green plant response rating: 100
[2]; [17]
  Plant response rating, Foxtail, Green: 100
[2]; [18]
  Plant response rating, Foxtail, Green: 100
[2]; [19]
  Foxtail, Green plant response rating: 70
[2]; [20]
  Plant response rating, Foxtail, Green: 100
[2]; [21]
  Plant response rating, Foxtail, Green: 100
[2]; [22]
  Foxtail, Green plant response rating: 100
[3]; [15]
  Foxtail, Giant plant response rating: 95
[3]; [16]
  Foxtail, Giant plant response rating: 100
[3]; [17]
  Plant response rating, Foxtail, Giant: 100
[3]; [18]
  Plant response rating, Foxtail, Giant: 100
[3]; [19]
  Foxtail, Giant plant response rating: 98
[3]; [20]
  Plant response rating, Foxtail, Giant: 100
[3]; [21]
  Plant response rating, Foxtail, Giant: 100
[3]; [22]
  Foxtail, Giant plant response rating: 100
[4]; [15]
  Surinam Grass plant response rating: 75
[4]; [16]
  Surinam Grass plant response rating: 95
[4]; [17]
  Plant response rating, Surinam Grass: 100
[4]; [18]
  Plant response rating, Surinam Grass: 100
[4]; [19]
  Surinam Grass plant response rating: 80
[4]; [20]
  Plant response rating, Surinam Grass: 95
[4]; [21]
  Plant response rating, Surinam Grass: 100
[4]; [22]
  Surinam Grass plant response rating: 85
[5]; [15]
  Oat, Wild plant response rating: 95
[5]; [16]
  Oat, Wild plant response rating: 95
[5]; [17]
  Plant response rating, Oat, Wild: 95
[5]; [18]
  Plant response rating, Oat, Wild: 100
[5]; [19]
  Oat, Wild plant response rating: 0
[5]; [20]
  Plant response rating, Oat, Wild: 80
[5]; [21]
  Plant response rating, Oat, Wild: 80
[5]; [22]
  Oat, Wild plant response rating: 60
[6]; [15]
  Cupgrass, Woolly plant response rating: 85
[6]; [16]
  Cupgrass, Woolly plant response rating: 90
[6]; [17]
  Plant response rating, Cupgrass, Woolly: 95
[6]; [18]
  Plant response rating, Cupgrass, Woolly: 100
[6]; [19]
  Cupgrass, Woolly plant response rating: 45
[6]; [20]
  Plant response rating, Cupgrass, Woolly: 98
[6]; [21]
  Plant response rating, Cupgrass, Woolly: 100
[6]; [22]
  Cupgrass, Woolly plant response rating: 80
[7]; 31 g ai/ha, scale 0 to 100 (0 no effect, 100 complete control)
  Plant response rating, Galium: 50
[7]; 62 g ai/ha, 0 to 100 scale, 0 no effect, 100 complete control
  Plant response rating, Galium: 50
[8]; [15]
  Lambsquarters plant response rating: 0
[8]; [16]
  Lambsquarters plant response rating: 0
[8]; [17]
  Plant response rating, Lambsquarters: 0
[8]; [18]
  Plant response rating, Lambsquarters: 0
[8]; [19]
  Lambsquarters plant response rating: 0
[8]; [20]
  Plant response rating, Lambsquarters: 100
[8]; [21]
  Plant response rating, Lambsquarters: 100
[8]; [22]
  Lambsquarters plant response rating: 0
[9]; [15]
  Bromegrass, Downy plant response rating: 85
[9]; [16]
  Bromegrass, Downy plant response rating: 95
[9]; [17]
  Plant response rating, Bromegrass, Downy: 100
[9]; [18]
  Plant response rating, Bromegrass, Downy: 100
[9]; [19]
  Bromegrass, Downy plant response rating: 30
[9]; [20]
  Plant response rating, Bromegrass, Downy: 98
[9]; [21]
  Plant response rating, Bromegrass, Downy: 100
[9]; [22]
  Bromegrass, Downy plant response rating: 50
[10]; [15]
  Blackgrass plant response rating: 98
[10]; [16]
  Blackgrass plant response rating: 98
[10]; [17]
  Plant response rating, Blackgrass: 100
[10]; [18]
  Plant response rating, Blackgrass: 100
[10]; [19]
  Blackgrass plant response rating: 80
[10]; [20]
  Plant response rating, Blackgrass: 100
[10]; [21]
  Plant response rating, Blackgrass: 100
[10]; [22]
  Blackgrass plant response rating: 98
[11]; [15]
  Goosegrass plant response rating: 60
[11]; [16]
  Goosegrass plant response rating: 65
[11]; [17]
  Plant response rating, Goosegrass: 85
[11]; [18]
  Plant response rating, Goosegrass: 90
[11]; [19]
  Goosegrass plant response rating: 95
[11]; [20]
  Plant response rating, Goosegrass: 98
[11]; [21]
  Plant response rating, Goosegrass: 100
[11]; [22]
  Goosegrass plant response rating: 98
[12]; [15]
  Pigweed plant response rating: 0
[12]; [16]
  Pigweed plant response rating: 0
[12]; [17]
  Plant response rating, Pigweed: 0
[12]; [18]
  Plant response rating, Pigweed: 0
[12]; [19]
  Pigweed plant response rating: 0
[12]; [20]
  Plant response rating, Pigweed: 0
[12]; [21]
  Plant response rating, Pigweed: 0
[13]; [15]
  Morningglory plant response rating: 0
[13]; [16]
  Morningglory plant response rating: 0
[13]; [17]
  Plant response rating, Morningglory: 0
[13]; [18]
  Plant response rating, Morningglory: 55
[13]; [19]
  Morningglory plant response rating: 0
[13]; [20]
  Plant response rating, Morningglory: 0
[13]; [21]
  Plant response rating, Morningglory: 25
[13]; [22]
  Morningglory plant response rating: 0
[14]; [15]
  Ragweed plant response rating: 20
[14]; [16]
  Ragweed plant response rating: 40
[14]; [17]
  Plant response rating, Ragweed: 65
[14]; [18]
  Plant response rating, Ragweed: 85
[14]; [19]
  Ragweed plant response rating: 0
[14]; [20]
  Plant response rating, Ragweed: 50
[14]; [21]
  Plant response rating, Ragweed: 80
[14]; [22]
  Ragweed plant response rating: 20

Source: patent publication US20100267561A1, “HERBICIDAL PYRIDAZINONE DERIVATIVES” (priority 2007, published 2010)
